In patent publication US20250235455A1, “AQUEOUS TICAGRELOR SOLUTIONS, METHOD OF MANUFACTURING AND USES” (HYLORIS DEVELOPMENTS SA, priority 2022, published 2025):

Assay: Solubility of ticagrelor in SBECD (appearance on shaking platform)
Assay type: physicochemical
Procedure: In a first example two different types of cyclodextrin were used and compared for the solubilization of ticagrelor. An unbuffered stock solution of HPβCD or SBECD was made in water at the target concentrations of 20 w/w %, 25 w/w %, 30 w/w %, 35 w/w % and 40 w/w %. Ticagrelor was added slowly under vortex. Ticagrelor was used at concentrations of 5, 10 or 14 mg/ml in milli Q water. The ticagrelor-cyclodextrin solutions were left on a shaking platform. No sonification or heat was applied.

[1] = SBECD 20% w/w, ticagrelor 5 mg/ml
[2] = SBECD 20% w/w, ticagrelor 10 mg/ml
[3] = SBECD 20% w/w, ticagrelor 14 mg/ml
[4] = SBECD 25% w/w, ticagrelor 5 mg/ml
[5] = SBECD 25% w/w, ticagrelor 10 mg/ml
[6] = SBECD 25% w/w, ticagrelor 14 mg/ml
[7] = SBECD 30% w/w, ticagrelor 5 mg/ml
[8] = SBECD 30% w/w, ticagrelor 10 mg/ml
[9] = SBECD 30% w/w, ticagrelor 14 mg/ml
[10] = SBECD 35% w/w, ticagrelor 5 mg/ml
[11] = SBECD 35% w/w, ticagrelor 10 mg/ml
[12] = SBECD 35% w/w, ticagrelor 14 mg/ml
[13] = SBECD 40% w/w, ticagrelor 5 mg/ml
[14] = SBECD 40% w/w, ticagrelor 10 mg/ml
[15] = SBECD 40% w/w, ticagrelor 14 mg/ml

With `CCCSc1nc(N[C@@H]2C[C@H]2c2ccc(F)c(F)c2)c2nnn([C@@H]3C[C@H](OCCO)[C@@H](O)[C@H]3O)c2n1` [Ticagrelor, (1S,2S,3R,5S)-3-{7-[(1R,2S)-2-(3,4-difluorophenyl)cyclopropylamino]5-(propylthio)-3H-(1,2,3)triazolo (4,5-D)pyrimidin-3-yl}-5-(2 hydroxyethoxy)cyclopentane-1,2-diol] the “Appearance After 5 min of shaking” value [1] was “− (translucent solution with precipitation)”, the “Appearance After 30 min of shaking” value [1] was “− (translucent solution with precipitation)” and the “Appearance After 60 min of shaking” value [1] was “− (translucent solution with precipitation)”. The “Appearance After 3 h of shaking” value [1] was “− (translucent solution with precipitation)”, the “Appearance After overnight shaking” value [1] was “− (translucent solution with precipitation)” and the “Appearance After 5 min of shaking” value [2] was “− (translucent solution with precipitation)”. For the same molecule, the “Appearance After 30 min of shaking” value [2] was “− (translucent solution with precipitation)”, the “Appearance After 60 min of shaking” value [2] was “− (translucent solution with precipitation)” and the “Appearance After 3 h of shaking” value [2] was “− (translucent solution with precipitation)”. The “Appearance After overnight shaking” value [2] was “− (translucent solution with precipitation)”, the “Appearance After 5 min of shaking” value [3] was “− (translucent solution with precipitation)” and the “Appearance After 30 min of shaking” value [3] was “− (translucent solution with precipitation)”. For the same molecule, the “Appearance After 60 min of shaking” value [3] was “− (translucent solution with precipitation)”, the “Appearance After 3 h of shaking” value [3] was “− (translucent solution with precipitation)” and the “Appearance After overnight shaking” value [3] was “− (translucent solution with precipitation)”. For the same molecule, the “Appearance After 5 min of shaking” value [4] was “− (translucent solution with precipitation)”, the “Appearance After 30 min of shaking” value [4] was “− (translucent solution with precipitation)” and the “Appearance After 60 min of shaking” value [4] was “− (translucent solution with precipitation)”. For the same molecule, the “Appearance After 3 h of shaking” value [4] was “− (translucent solution with precipitation)”, the “Appearance After overnight shaking” value [4] was “− (translucent solution with precipitation)” and the “Appearance After 5 min of shaking” value [5] was “− (translucent solution with precipitation)”. For the same molecule, the “Appearance After 30 min of shaking” value [5] was “− (translucent solution with precipitation)”, the “Appearance After 60 min of shaking” value [5] was “− (translucent solution with precipitation)” and the “Appearance After 3 h of shaking” value [5] was “− (translucent solution with precipitation)”. For the same molecule, the “Appearance After overnight shaking” value [5] was “− (translucent solution with precipitation)”, the “Appearance After 5 min of shaking” value [6] was “− (translucent solution with precipitation)” and the “Appearance After 30 min of shaking” value [6] was “− (translucent solution with precipitation)”. For the same molecule, the “Appearance After 60 min of shaking” value [6] was “− (translucent solution with precipitation)”, the “Appearance After 3 h of shaking” value [6] was “− (translucent solution with precipitation)” and the “Appearance After overnight shaking” value [6] was “− (translucent solution with precipitation)”. For the same molecule, the “Appearance After 5 min of shaking” value [7] was “− (translucent solution with precipitation)”, the “Appearance After 30 min of shaking” value [7] was “− (translucent solution with precipitation)” and the “Appearance After 60 min of shaking” value [7] was “− (translucent solution with precipitation)”. The “Appearance After 3 h of shaking” value [7] was “− (translucent solution with precipitation)”, the “Appearance After overnight shaking” value [7] was “− (translucent solution with precipitation)” and the “Appearance After 5 min of shaking” value [8] was “− (translucent solution with precipitation)”. For the same molecule, the “Appearance After 30 min of shaking” value [8] was “− (translucent solution with precipitation)”, the “Appearance After 60 min of shaking” value [8] was “− (translucent solution with precipitation)” and the “Appearance After 3 h of shaking” value [8] was “− (translucent solution with precipitation)”. The “Appearance After overnight shaking” value [8] was “− (translucent solution with precipitation)”, the “Appearance After 5 min of shaking” value [9] was “− (translucent solution with precipitation)” and the “Appearance After 30 min of shaking” value [9] was “− (translucent solution with precipitation)”. For the same molecule, the “Appearance After 60 min of shaking” value [9] was “− (translucent solution with precipitation)”, the “Appearance After 3 h of shaking” value [9] was “− (translucent solution with precipitation)” and the “Appearance After overnight shaking” value [9] was “− (translucent solution with precipitation)”. For the same molecule, the “Appearance After 5 min of shaking” value [10] was “− (translucent solution with precipitation)”, the “Appearance After 30 min of shaking” value [10] was “+/−” and the “Appearance After 60 min of shaking” value [10] was “+/−”. The “Appearance After 3 h of shaking” value [10] was “+/−”, the “Appearance After overnight shaking” value [10] was “− (translucent solution with precipitation)” and the “Appearance After 5 min of shaking” value [11] was “− (translucent solution with precipitation)”. The “Appearance After 30 min of shaking” value [11] was “− (translucent solution with precipitation)”, the “Appearance After 60 min of shaking” value [11] was “− (translucent solution with precipitation)” and the “Appearance After 3 h of shaking” value [11] was “− (translucent solution with precipitation)”. For the same molecule, the “Appearance After overnight shaking” value [11] was “− (translucent solution with precipitation)”, the “Appearance After 5 min of shaking” value [12] was “− (translucent solution with precipitation)” and the “Appearance After 30 min of shaking” value [12] was “− (translucent solution with precipitation)”. For the same molecule, the “Appearance After 60 min of shaking” value [12] was “− (translucent solution with precipitation)”, the “Appearance After 3 h of shaking” value [12] was “− (translucent solution with precipitation)” and the “Appearance After overnight shaking” value [12] was “− (translucent solution with precipitation)”. For the same molecule, the “Appearance After 5 min of shaking” value [13] was “− (translucent solution with precipitation)”, the “Appearance After 30 min of shaking” value [13] was “+/−” and the “Appearance After 60 min of shaking” value [13] was “+/−”. For the same molecule, the “Appearance After 3 h of shaking” value [13] was “+/−”, the “Appearance After overnight shaking” value [13] was “+ (clear, appeared completely dissolved)” and the “Appearance After 5 min of shaking” value [14] was “− (translucent solution with precipitation)”. For the same molecule, the “Appearance After 30 min of shaking” value [14] was “− (translucent solution with precipitation)”, the “Appearance After 60 min of shaking” value [14] was “− (translucent solution with precipitation)” and the “Appearance After 3 h of shaking” value [14] was “− (translucent solution with precipitation)”. The “Appearance After overnight shaking” value [14] was “− (translucent solution with precipitation)”, the “Appearance After 5 min of shaking” value [15] was “− (translucent solution with precipitation)” and the “Appearance After 30 min of shaking” value [15] was “− (translucent solution with precipitation)”. For the same molecule, the “Appearance After 60 min of shaking” value [15] was “− (translucent solution with precipitation)”, the “Appearance After 3 h of shaking” value [15] was “− (translucent solution with precipitation)” and the “Appearance After overnight shaking” value [15] was “− (translucent solution with precipitation)”.
